From PMC12516498, “Enzymatic, cell-based, and in silico evaluation of di-substituted aminomethyl-1,2,3-triazole–cinamamide hybrids as mushroom tyrosinase inhibitors” (RSC Advances, 2025)

Assays:
tyrosinase = conditions: in Fig. 1; 13–15; read-out: IC50 against Tyrosinase; cited from earlier work
[1] = DPPH free radical-scavenging assay; conditions: 200 µM compound, DPPH 110 µM, 30 min
Experimental: As described previously, radical-scavenging activity was assessed using the 2,2-diphenyl-1-picrylhydrazyl (DPPH) assay. Briefly, the mixture of different concentrations of the compounds and DPPH methanolic solution (110 µM) was shaken in the dark at room temperature for 30 min. The mixture absorbance was measured at 517 nm. Quercetin was used as the positive control.[25]

mushroom tyrosinase = mushroom tyrosinase (Agaricus bisporus, UniProt C7FF04); experiment: Enzyme kinetic study / determination of the inhibition type (Lineweaver–Burk); type: biochemical; conditions: Lineweaver–Burk plot: Km increased, Vmax unchanged
Sequence of mushroom tyrosinase (C7FF04 2-392): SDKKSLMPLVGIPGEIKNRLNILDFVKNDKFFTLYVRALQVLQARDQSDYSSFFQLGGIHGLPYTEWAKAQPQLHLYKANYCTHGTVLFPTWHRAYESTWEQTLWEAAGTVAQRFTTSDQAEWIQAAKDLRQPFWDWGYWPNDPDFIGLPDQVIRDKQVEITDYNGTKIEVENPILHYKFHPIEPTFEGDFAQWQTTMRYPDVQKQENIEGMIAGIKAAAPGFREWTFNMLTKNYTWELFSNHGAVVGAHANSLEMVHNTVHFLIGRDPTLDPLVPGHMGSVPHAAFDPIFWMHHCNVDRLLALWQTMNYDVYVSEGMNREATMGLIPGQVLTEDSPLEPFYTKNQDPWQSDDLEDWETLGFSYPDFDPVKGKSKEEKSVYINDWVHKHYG
Experimental: The substrate (L-DOPA) concentrations ranged from 0.5 to 2.8 mM according to the previously reported procedures.[24]

[2] = MTT assay for cell viability; type: cell-based, murine; conditions: mouse, B16F10 melanoma cells, MTT, 72 h, read-out: % Viability ± SE
Experimental: (§1) The cytotoxic activity of all derivatives was determined using the 3-(4,5-dimethylthiazol-2-yl)-2,5-diphenyltetrazolium bromide (MTT) assay. B16F10 were obtained from the Pasteur Institute of Iran (https://en.pasteur.ac.ir/). Cells (at a density of 25 000 cells per ml) were grown at 37 °C in the presence of CO2 5% in DMEM (Gibco BRL, Grand Island, NY, USA), 10% fetal bovine serum (FBS, Gibco BRL). Next, cells were seeded in a 96-well plate and incubated at 37 °C with the derivative at different concentrations for 72 h. Following treatment, cells were incubated with MTT (0.5 mg mL^−1) for 3 h. The MTT-containing medium was then removed, and 100 µL of DMSO was added to each well, mixed thoroughly with a 10-minute shake to dissolve the formazan crystals. The absorbance of each well was measured at 540 nm.[28]

B16F10 melanoma cells [3] = experiment: MTT assay for cell viability; type: cell-based, murine; conditions: concentrations ≤100 µM
Experimental: as §1

B16F10 melanoma cells [4] = experiment: Melanin content assay; type: cell-based, murine; conditions: α-MSH 100 nM, 70 µM compound, 48 h, untreated control 92 µg mL^−1
Experimental: The melanin content assay was performed according to previously reported protocols with minor modifications. Briefly, B16F10 cells were seeded in 12-well plates at a density of 50 000 cells per well. After 24 hours of incubation, 100 nM α-MSH was added to each well, followed by the addition of compound 9i five hours later. The plates were then incubated for an additional 48 hours. Subsequently, the cells were washed twice with PBS and harvested using […]. The cell pellets were dissolved in 200 µL of 1 N NaOH containing 10% DMSO and incubated at 80 °C for 2 hours to solubilize the melanin. The absorbance of the resulting supernatant was measured at […] using a microplate reader. The melanin content was quantified using a calibration curve constructed from synthetic melanin standards, measured at 405 nm. Kojic acid was used as a positive control for comparison.[29]

| Compound | DPPH radical scavenging % Inhibition at 200 µM [1] [%] | further results |
| --- | --- | --- |
| Clc1ccc(Cn2cc(COc3ccc(-c4nc5ccccc5[nH]4)cc3)nn2)cc1Cl [E] |  | IC50 (tyrosinase): 9420 nM |
| COc1ccc(C=CC(=O)NCc2cn(CC(=O)Nc3ccc(Cl)cc3)nn2)cc1 [Compound 9n, N-((1-(2-((4-Chlorophenyl)amino)-2-oxoethyl)-1H-1,2,3-triazol-4-yl)methyl)-3-(4-methoxyphenyl)acrylamide] | 68.64 ± 7.33 |  |
| O=C(C=Cc1ccccc1)NCc1cn(CC(=O)Nc2ccccc2)nn1 [Compound 9a, N-((1-(2-Oxo-2-(phenylamino)ethyl)-1H-1,2,3-triazol-4-yl)methyl)cinnamamide] | 23.64 ± 4.63 |  |
| O=C(C=Cc1ccccc1)NCc1cn(CC(=O)Nc2ccc(Br)cc2)nn1 [Compound 9d, N-((1-(2-((4-Bromophenyl)amino)-2-oxoethyl)-1H-1,2,3-triazol-4-yl)methyl)cinnamamide] | 41.09 ± 4.11 |  |
| O=C(C=Cc1ccc(Cl)cc1)NCc1cn(CC(=O)Nc2ccccc2)nn1 [Compound 9f, 3-(4-Chlorophenyl)-N-((1-(2-oxo-2-(phenylamino)ethyl)-1H-1,2,3-triazol-4-yl)methyl)acrylamide] | 46.18 ± 1.54 |  |
| COc1ccc(NC(=O)Cn2cc(CNC(=O)C=Cc3ccc(Cl)cc3)nn2)cc1 [Compound 9k, 3-(4-Chlorophenyl)-N-((1-(2-((4-methoxyphenyl)amino)-2-oxoethyl)-1H-1,2,3-triazol-4-yl)methyl)acrylamide] | 55.28 ± 0.16 |  |
| O=C(C=Cc1ccccc1)NCc1cn(CC(=O)Nc2ccc(Cl)cc2)nn1 [Compound 9c, N-((1-(2-((4-Chlorophenyl)amino)-2-oxoethyl)-1H-1,2,3-triazol-4-yl)methyl)cinnamamide] | 36.91 ± 0.51 |  |
| O=C(C=Cc1ccccc1)NCc1cn(CC(=O)Nc2ccc(F)cc2)nn1 [Compound 9b, N-((1-(2-((4-Fluorophenyl)amino)-2-oxoethyl)-1H-1,2,3-triazol-4-yl)methyl)cinnamamide] | 64.18 ± 2.31 |  |
| CCc1ccc(NC(=O)Cn2cc(CNC(=O)C=Cc3ccc(Cl)cc3)nn2)cc1 [Compound 9j, 3-(4-Chlorophenyl)-N-((1-(2-((4-ethylphenyl)amino)-2-oxoethyl)-1H-1,2,3-triazol-4-yl)methyl)acrylamide] | 82.36 ± 5.91 |  |
| O=C(C=Cc1ccc(Cl)cc1)NCc1cn(CC(=O)Nc2ccc(Br)cc2)nn1 [Compound 9i, N-((1-(2-((4-Bromophenyl)amino)-2-oxoethyl)-1H-1,2,3-triazol-4-yl)methyl)-3-(4-chlorophenyl)acrylamide] | 51.82 ± 2.31 | Inhibition type (mushroom tyrosinase): competitive inhibition; viability at 72 h, 100 µM ([2]; B16F10, 100 µM): > 80%; viability at 72 h, 150 µM ([2]; B16F10, 150 µM): 58.2 ± 3.43%; viability at 72 h, 200 µM ([2]; B16F10, 200 µM): 51.2 ± 4.34%; Cytotoxicity to B16F10 melanoma cells (in words) (B16F10 melanoma cells [3]): low cytotoxicity; Intracellular melanin content (B16F10 melanoma cells [4]): 62 µg/mL |
| O=c1cc(Cn2cc(Oc3ccc4ccccc4c3)nn2)occ1O [F] |  | IC50 (tyrosinase): 300 nM |
| COc1ccc(C=CC(=O)NCc2cn(CC(=O)Nc3ccc(F)cc3)nn2)cc1 [Compound 9m, N-((1-(2-((4-Fluorophenyl)amino)-2-oxoethyl)-1H-1,2,3-triazol-4-yl)methyl)-3-(4-methoxyphenyl)acrylamide] | 60.18 ± 6.94 |  |
| COc1ccc(C=CC(=O)NCc2cn(CC(=O)Nc3ccccc3)nn2)cc1 [Compound 9l, 3-(4-Methoxyphenyl)-N-((1-(2-oxo-2-(phenylamino)ethyl)-1H-1,2,3-triazol-4-yl)methyl)acrylamide] | 43.91 ± 4.50 |  |
| O=C(C=Cc1ccc(Cl)cc1)NCc1cn(CC(=O)Nc2ccc(F)cc2)nn1 [Compound 9g, 3-(4-Chlorophenyl)-N-((1-(2-((4-fluorophenyl)amino)-2-oxoethyl)-1H-1,2,3-triazol-4-yl)methyl)acrylamide] | 45.73 ± 3.47 |  |
| NC(=S)N/N=C/c1ccc(OCc2cn(Cc3ccc(F)cc3)nn2)cc1 [D] |  | IC50 (tyrosinase): 220 nM |
| CCc1ccc(NC(=O)Cn2cc(CNC(=O)C=Cc3ccccc3)nn2)cc1 [Compound 9e, N-((1-(2-((4-Ethylphenyl)amino)-2-oxoethyl)-1H-1,2,3-triazol-4-yl)methyl)cinnamamide] | 47.36 ± 1.93 |  |
| COc1ccc(C=CC(=O)NCc2cn(CC(=O)Nc3ccc(OC)cc3)nn2)cc1 [Compound 9q, 3-(4-Methoxyphenyl)-N-((1-(2-((4-methoxyphenyl)amino)-2-oxoethyl)-1H-1,2,3-triazol-4-yl)methyl)acrylamide] | 61.51 ± 3.74 |  |
| CCc1ccc(NC(=O)Cn2cc(CNC(=O)C=Cc3ccc(OC)cc3)nn2)cc1 [Compound 9p, N-((1-(2-((4-Ethylphenyl)amino)-2-oxoethyl)-1H-1,2,3-triazol-4-yl)methyl)-3-(4 methoxyphenyl)acrylamide] | 40.73 ± 5.91 |  |
| O=C(C=Cc1ccc(Cl)cc1)NCc1cn(CC(=O)Nc2ccc(Cl)cc2)nn1 [Compound 9h, 3-(4-Chlorophenyl)-N-((1-(2-((4-chlorophenyl)amino)-2-oxoethyl)-1H-1,2,3-triazol-4-yl)methyl)acrylamide] | 22.82 ± 0.90 |  |
| COc1ccc(C=CC(=O)NCc2cn(CC(=O)Nc3ccc(Br)cc3)nn2)cc1 [Compound 9o, N-((1-(2-((4-Bromophenyl)amino)-2-oxoethyl)-1H-1,2,3-triazol-4-yl)methyl)-3-(4-methoxyphenyl)acrylamide] | 57.09 ± 6.17 |  |
